Test results reported in US20250101039A1, “RIFAMYCIN DERIVATIVES FOR THE TREATMENT OF DISEASES” (priority 2022, published 2025).
Values after ≈ are worked out from the molar mass of the structure shown. Values joined by “and” are separate entries in the source; they are usually repeats but may differ in a detail not shown here. Equal values may be shown once. Read-outs that look alike come from different tables or passages of the source.

Assays:
A. baumannii RpoB H535L = experiment: microbe, parasite or virus in culture; type: cell-based, Acinetobacter baumannii; conditions: for MIC: Acinetobacter baumannii, RPOBH535L
[1] = tested on: S. pneumoniae (strain ATCC 49619); experiment: MIC by broth microdilution, S. pneumoniae; type: cell-based, Streptococcus pneumoniae; conditions: strain ATCC 49619, cation adjusted Mueller Hinton broth + 5% laked horse blood
[2] = tested on: M. smegmatis (strain ATCC 700084); experiment: MIC, M. smegmatis (BacTiter-Glo); type: cell-based, Mycobacterium smegmatis; conditions: strain ATCC 700084, Middlebrook 7H9 + ADC, 90% growth inhibition, 20 hours
A. baumannii RpoB L542F = experiment: microbe, parasite or virus in culture; type: cell-based, Acinetobacter baumannii; conditions: for MIC: Acinetobacter baumannii, RPOBL542F
[3] = tested on: S. pyogenes (strain IHMA 1117021); experiment: MIC by broth microdilution, S. pyogenes; type: cell-based, Streptococcus pyogenes; conditions: strain IHMA 1117021, cation adjusted Mueller Hinton broth + 5% laked horse blood
[4] = tested on: M. abscessus (strain ATCC 19977); experiment: MIC by broth microdilution, M. abscessus; type: cell-based, Mycobacterium abscessus; conditions: strain ATCC 19977, Middlebrook 7H9 broth + ADC
A. baumannii RpoB S583L = experiment: microbe, parasite or virus in culture; type: cell-based, Acinetobacter baumannii
[5] = tested on: H. influenzae (strain ATCC 49247); experiment: MIC by broth microdilution, H. influenzae; type: cell-based, Hemophilus influenzae; conditions: strain ATCC 49247, Hemophilus test medium broth
A. baumannii RpoB H535C = experiment: microbe, parasite or virus in culture; type: cell-based, Acinetobacter baumannii; conditions: for MIC: Acinetobacter baumannii, RPOBH535C
A. baumannii RpoB I581M = experiment: microbe, parasite or virus in culture; type: cell-based, Acinetobacter baumannii
[6] = tested on: A. baumannii RpoB H535Q/S521T; experiment: microbe, parasite or virus in culture; type: cell-based, Acinetobacter baumannii
S. aureus = experiment: MIC by broth microdilution, S. aureus; type: cell-based, Staphylococcus aureus; conditions: cation adjusted Mueller Hinton broth, 35° C. 20 hours
A. baumannii RpoB H535Q = experiment: microbe, parasite or virus in culture; type: cell-based, Acinetobacter baumannii; conditions: for MIC: Acinetobacter baumannii, RPOBH535Q
[7] = tested on: Enterococcus faecium (strain NCTC 12204); experiment: MIC by broth microdilution, E. faecium; type: cell-based; conditions: strain NCTC 12204, cation adjusted Mueller Hinton broth
[8] = tested on: Staphylococcus epidermidis (strain ATCC 12228); experiment: MIC by broth microdilution, S. epidermidis; type: cell-based; conditions: strain ATCC 12228, cation adjusted Mueller Hinton broth
A. baumannii RpoB N527D = experiment: microbe, parasite or virus in culture; type: cell-based, Acinetobacter baumannii
[9] = tested on: M. tuberculosis (H37Rv strain ATCC 27294); type: cell-based, Mycobacterium tuberculosis
[10] = tested on: Enterococcus faecalis (strain ATCC 51575); experiment: MIC by broth microdilution, E. faecalis; type: cell-based; conditions: strain ATCC 51575, cation adjusted Mueller Hinton broth
A. baumannii = experiment: MIC by broth microdilution, A. baumannii (WT); type: cell-based, Acinetobacter baumannii; conditions: for MIC A. baumannii: RPMI medium supplemented with 10% FCS, 35° C. 20 hours; for A. baumannii MIC, WT: Table 4, RPMI + FCS

## CO[C@H]1/C=C/O[C@@]2(C)Oc3c(C)c(O)c4c(c3C2=O)C2=NC3(CC5CCC(C3)N5)NC2=C(NC(=O)/C(C)=C\C=C\[C@H](C)[C@H](O)[C@@H](C)[C@@H](O)[C@@H](C)[C@H](OC(C)=O)[C@@H]1C)C4=O (single isomer, unassigned) [Compound 12B]
A. baumannii RpoB H535L; Table 4, RPMI + FCS
  A. baumannii MIC, RpoB H535L: 0.03 µg/mL
[1]
  MIC S. pneumoniae: < 0.002 µg/mL
[2]
  MIC M. smegmatis: 0.32 µg/mL
A. baumannii RpoB L542F
  MIC, RpoB mutation L542F: 0.002 µg/mL (≈ 0.00245 µM)
[3]
  MIC S. pyogenes: < 0.002 µg/mL
[4]
  MIC M. abscessus: 8 µg/mL
A. baumannii RpoB S583L; Table 5 part 3 c4, clinical isolate, RPMI + 10% FCS
  MIC, RpoB mutation S583L: 0.004 µg/mL
[5]
  MIC H. influenzae: 0.06 µg/mL (≈ 0.0734 µM)
A. baumannii RpoB H535C; Table 4, RPMI + FCS
  A. baumannii MIC, RpoB H535C: ≤0.002 µg/mL
A. baumannii RpoB I581M; Table 5 part 1 c1, clinical isolate, RPMI + 10% FCS
  MIC, RpoB mutation I581M: 0.004 µg/mL
[6]
  MIC, RpoB mutation H535Q/S521T: 0.5 µg/mL and 1 µg/mL
S. aureus
  MIC S. aureus: 0.016 µg/mL (≈ 0.0196 µM)
A. baumannii RpoB H535Q; Table 4, RPMI + FCS
  A. baumannii MIC, RpoB H535Q: ≤0.002 µg/mL
[7]
  MIC E. faecium: 0.03 µg/mL (≈ 0.0367 µM)
[8]
  MIC S. epidermidis: < 0.002 µg/mL
A. baumannii RpoB N527D; Table 5 part 3 c5, clinical isolate, RPMI + 10% FCS
  MIC, RpoB mutation N527D: ≤0.002 µg/mL
[9]
  MIC M. tuberculosis: 0.01 µg/mL (≈ 0.0122 µM)
[10]
  MIC E. faecalis: 0.125 µg/mL (≈ 0.153 µM)
A. baumannii
  MIC A. baumannii: < 0.002 µg/mL
  A. baumannii MIC, WT: ≤0.002 µg/mL

## CO[C@H]1/C=C/O[C@@]2(C)Oc3c(C)c(O)c4c(c3C2=O)C2=NC3(NC2=C(NC(=O)/C(C)=C\C=C\[C@H](C)[C@H](O)[C@@H](C)[C@@H](O)[C@@H](C)[C@H](OC(C)=O)[C@@H]1C)C4=O)C1CC2CC3CN(C2)C1 (some centres unmarked) [Compound 3B]
A. baumannii RpoB H535L
  A. baumannii MIC, RpoB H535L: 0.016 µg/mL
[1]
  MIC S. pneumoniae: < 0.002 µg/mL
[2]
  MIC M. smegmatis: 0.65 µg/mL
[3]
  MIC S. pyogenes: < 0.002 µg/mL
[4]
  MIC M. abscessus: 8 µg/mL
A. baumannii RpoB S583L
  MIC, RpoB mutation S583L: ≤0.002 µg/mL
[5]
  MIC H. influenzae: 0.125 µg/mL (≈ 0.148 µM)
A. baumannii RpoB H535C
  A. baumannii MIC, RpoB H535C: ≤0.002 µg/mL
A. baumannii RpoB I581M
  MIC, RpoB mutation I581M: ≤0.002 µg/mL
[6]
  MIC, RpoB mutation H535Q/S521T: 1 µg/mL and 0.5 µg/mL
A. baumannii RpoB H535Q
  A. baumannii MIC, RpoB H535Q: ≤0.002 µg/mL
[7]
  MIC E. faecium: 0.03 µg/mL (≈ 0.0356 µM)
[8]
  MIC S. epidermidis: < 0.002 µg/mL
A. baumannii RpoB N527D
  MIC, RpoB mutation N527D: ≤0.002 µg/mL
[9]
  MIC M. tuberculosis: 0.01 µg/mL (≈ 0.0119 µM)
[10]
  MIC E. faecalis: 0.5 µg/mL (≈ 0.593 µM)
A. baumannii
  MIC A. baumannii: < 0.002 µg/mL
  A. baumannii MIC, WT: ≤0.002 µg/mL

## CO[C@H]1/C=C/O[C@@]2(C)Oc3c(C)c(O)c4c(O)c(c(/C=N/N5CCN(C)CC5)c(O)c4c3C2=O)NC(=O)/C(C)=C\C=C\[C@H](C)[C@H](O)[C@@H](C)[C@@H](O)[C@@H](C)[C@H](OC(C)=O)[C@@H]1C [Rifampicin, reference compound]
A. baumannii RpoB H535L; read-out: A. baumannii MIC, RpoB H535L, Table 4, cation-adjusted Mueller Hinton broth (rifampicin)
  MIC: > 32 µg/mL
A. baumannii RpoB H535L; read-out: MIC, RpoB mutation H535L, Table 5 part 2 c5, 1st H535L isolate, cation-adjusted Mueller Hinton broth (rifampicin)
  MIC: > 32 µg/mL
A. baumannii RpoB H535L; read-out: MIC, RpoB mutation H535L, Table 5 part 2 c6, 2nd H535L isolate, cation-adjusted Mueller Hinton broth (rifampicin)
  MIC: > 32 µg/mL
A. baumannii RpoB H535L; read-out: MIC, RpoB mutation H535L, Table 5 part 3 c1, 3rd H535L isolate, cation-adjusted Mueller Hinton broth (rifampicin)
  MIC: > 32 µg/mL
A. baumannii RpoB H535L; read-out: MIC, RpoB mutation H535L, Table 5 part 3 c6, 4th H535L isolate, cation-adjusted Mueller Hinton broth (rifampicin)
  MIC: > 32 µg/mL
A. baumannii RpoB H535L; read-out: MIC, RpoB mutation H535L, Table 5 part 3 c7, 5th H535L isolate, cation-adjusted Mueller Hinton broth (rifampicin)
  MIC: > 32 µg/mL
A. baumannii RpoB L542F; read-out: MIC, RpoB mutation L542F, Table 5 part 3 c2, 1st L542F isolate, cation-adjusted Mueller Hinton broth (rifampicin)
  MIC: 8 µg/mL (≈ 9.72 µM)
A. baumannii RpoB L542F; read-out: MIC, RpoB mutation L542F, Table 5 part 3 c3, 2nd L542F isolate, cation-adjusted Mueller Hinton broth (rifampicin)
  MIC: 8 µg/mL (≈ 9.72 µM)
A. baumannii RpoB S583L; Acinetobacter baumannii, RPOBS583L, read-out: MIC, RpoB mutation S583L
  MIC: > 32 µg/mL
[5]; Haemophilus influenzae, ATCC49247, read-out: MIC H. influenzae
  MIC: 250 µg/mL (≈ 304 µM)
A. baumannii RpoB H535C; read-out: A. baumannii MIC, RpoB H535C, Table 4, cation-adjusted Mueller Hinton broth (rifampicin)
  MIC: > 32 µg/mL
A. baumannii RpoB H535C; read-out: MIC, RpoB mutation H535C, Table 5 part 2 c2, 2nd H535C isolate, cation-adjusted Mueller Hinton broth (rifampicin)
  MIC: > 32 µg/mL
A. baumannii RpoB H535C; read-out: MIC, RpoB mutation H535C, Table 5 part 2 c3, 3rd H535C isolate, cation-adjusted Mueller Hinton broth (rifampicin)
  MIC: > 32 µg/mL
A. baumannii RpoB H535C; read-out: MIC, RpoB mutation H535C, Table 5 part 2 c4, 4th H535C isolate, cation-adjusted Mueller Hinton broth (rifampicin)
  MIC: > 32 µg/mL
A. baumannii RpoB I581M; Acinetobacter baumannii, RPOBI581M, read-out: MIC, RpoB mutation I581M
  MIC: > 32 µg/mL
A. baumannii RpoB H535Q; read-out: A. baumannii MIC, RpoB H535Q, Table 4, cation-adjusted Mueller Hinton broth (rifampicin)
  MIC: > 32 µg/mL
A. baumannii RpoB H535Q; read-out: MIC, RpoB mutation H535Q, Table 5 part 1 c2, 1st H535Q isolate, cation-adjusted Mueller Hinton broth (rifampicin)
  MIC: > 32 µg/mL
A. baumannii RpoB H535Q; read-out: MIC, RpoB mutation H535Q, Table 5 part 1 c3, 2nd H535Q isolate, cation-adjusted Mueller Hinton broth (rifampicin)
  MIC: > 32 µg/mL
A. baumannii RpoB H535Q; read-out: MIC, RpoB mutation H535Q, Table 5 part 1 c4, 3rd H535Q isolate, cation-adjusted Mueller Hinton broth (rifampicin)
  MIC: > 32 µg/mL
[7]; Enterococcus faecium, NCTC12204, read-out: MIC E. faecium
  MIC: 500 µg/mL (≈ 608 µM)
[8]; Staphylococcus epidermidis, ATCC12228, read-out: MIC S. epidermidis
  MIC: ≤ 2 µg/mL
A. baumannii RpoB N527D; Acinetobacter baumannii, RPOBN527D, read-out: MIC, RpoB mutation N527D
  MIC: > 32 µg/mL
[10]; Enterococcus faecalis, ATCC51575, read-out: MIC E. faecalis
  MIC: 1000 µg/mL (≈ 1220 µM)
A. baumannii; Acinetobacter baumannii, Table 4, cation-adjusted Mueller Hinton broth (rifampicin), read-out: A. baumannii MIC, WT
  MIC: 8 µg/mL (≈ 9.72 µM)
